According to US10464952B2, “Beta-lactamase inhibitors” (priority 2015, dated 2019):

Columns and labels:
p99 AmpC = target: T1, p99 AmpC (Enterobacter cloacae, UniProt P05364); test: β-lactamase enzyme inhibition assay, p99 AmpC (nitrocefin substrate); type: biochemical
T1 construct: made in house; host or cells: E. coli BL21(DE3)
Protocol: (§1) For SHV-5, KPC-2, p99AmpC and OXA-4813-lactamases, E. coli BL21(DE3) bacterial cells carrying expression plasmids (expressed as native untagged proteins) for the individual β-lactamases were grown in 1L of Superbroth (Teknova Inc. Hollister, Calif.) supplemented with 100 μg/ml kanamycin selection and 1×5052 (0.5% glycerol, 0.05% glucose and 0.2% α-lactose) at 35° C. for 18-20 hours. Cells were harvested by centrifugation (4,000 ×g, 4° C., 20 min), re-suspended in 50 ml of 10 mM HEPES pH 7.5 (1/20 of the initial volume). The cells were lysed by sonication (5 pulses of 45 seconds) at 45 Won ice. The lysates were clarified by centrifugation at 10,000 ×g for 40 minutes at 4° C. Samples were diluted 5-fold in 50 mM sodium acetate pH 5.0, stored overnight at 4° C., after which they were centrifuged at 10,000 ×g for 30 minutes to clarify, and filtered through 0.45 μm filters. The samples were loaded onto a 5 ml Capto S sepharose cation exchange column (GE Healthcare) pre-equilibrated with 50 mM sodium acetate pH 5.0. The column was washed with 5 column volumes of 50 mM sodium acetate pH 5.0 to wash out unbound protein and a linear gradient of NaCl (0 to 500 mM) was used to elute the protein (over 16 CV) from the column. Fractions were assayed for β-lactamase activity using Centa (Calbiochem, Gibbstown, N.J.) or Nitrocefin (EMD Millipore chemicals, Darmstadt, Germany) as a reporter β-lactamase substrate for activity in the isolated fractions. Active fractions were pooled, concentrated and further purified by gel filtration chromatography on a Superdex 75 prep grade gel filtration column (GE Healthcare, Piscataway, N.J.) pre -equilibrated in 50 mM Hepes pH 7.5, 150 mM NaCl. Active fractions were pooled, concentrated, and quantitated by BCA protein determination (ThermoScientific, Rockford, Ill.), dialyzed into PBS and frozen at […] in 20% glycerol until use.
(§2) An equal volume of diluted enzyme stock was added, and the plates were incubated at 37° C. for 15 min. Nitrocefin was used as substrate for p99 AmpC, VIM-2 and OXA-48 and dispensed into each well at a final concentration of 100 μM. Absorbance at 486 nm was immediately monitored for 10 min using a Biotek Powerwave XS2 microplate spectrophotometer using the GEN5 software package (Biotek Instruments, Winooski Vt.). In an analogous fashion, imipenem was used as substrate for KPC-2 and Cefotaxime was used for SHV-5, while changes in absorbance upon hydrolysis of the β-lactam ring were monitored at 300 nm and 260 nm respectively in UV-transparent 96-well microtiter assay plates. Maximum rates of hydrolysis were compared to those in control wells (without inhibitors), and percentages of enzyme inhibition were calculated for each concentration of inhibitor. The concentration of inhibitor needed to reduce the initial rate of hydrolysis of substrate by 50% (IC50) was calculated as the residual activity of β-lactamase at 486 nm using GraFit version 7 kinetics software package (Erithacus Software, Surrey, UK).
(§3) Using the methodology described above, examples of the current invention were evaluated for their ability to inhibit β-lactamase enzymes from all four Ambler classifications (A through D). […] NT=Not tested.

OXA-48 = target: T2, OXA-48 (Klebsiella pneumoniae, UniProt Q6XEC0); test: β-lactamase enzyme inhibition assay, OXA-48 (nitrocefin substrate); type: biochemical
T2 construct: made in house; host or cells: E. coli BL21(DE3)
T2 sequence (Q6XEC0 23-265 limits assumed): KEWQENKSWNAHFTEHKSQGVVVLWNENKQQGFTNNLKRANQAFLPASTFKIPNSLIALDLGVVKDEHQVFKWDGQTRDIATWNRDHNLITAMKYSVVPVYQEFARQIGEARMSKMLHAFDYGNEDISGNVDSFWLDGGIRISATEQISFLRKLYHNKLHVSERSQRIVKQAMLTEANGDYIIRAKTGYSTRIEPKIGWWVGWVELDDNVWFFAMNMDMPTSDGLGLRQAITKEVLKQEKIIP
Protocol: as §1, §2, §3

[1] = test system: E. coli expressing the Class A Extended Spectrum Beta-Lactamase (ESBL) CTX-M-15; test: Broth microdilution MIC assay, potentiation of ceftazidime; type: cell-based; conditions: Fixed CAZ 4 μg/mL; CAMHB, 16-20 hours at 37° C.
Text: (§4) To determine the ability of test compounds to potentiate the inhibition of the growth of bacterial strains that produce beta-lactamase enzymes, classic cell based broth microdilution MIC assays were employed. Six bacteria strains producing beta-lactamase enzymes were used: E. coli expressing the Class A Extended Spectrum Beta-Lactamase (ESBL) CTX-M-15, E. cloacae expressing the Class C P99, K. pneumoniae expressing the Class A carbapenemase KPC-3, P.aeruginosa expressing the Class B carbapenemase VIM-2, K. pneumoniae expressing the class A carbapenemase KPC-2 and the class B carbapenemase VIM-4, and K. pneumoniae producing the Class D carbapenemase OXA-48. The assay was conducted in Cation Adjusted Mueller Hinton Broth (CAMHB, BD #212322, BD Diagnostic Systems, Sparks, Md.). Bacteria strains were grown for 3-5 hours in CAMHB broth. Test compounds were added to a microtiter plate in 2-fold serial dilutions in CAMHB in a final concentration range of 32 μg/mL to 0.015 μg/mL. An overlay of CAMHB containing a Beta-lactam was added to the compounds at a final static concentration of 4 μg/mL. […] In addition to the titration of test compounds the MICs of a panel of control beta-lactams is also tested to ensure the strains are behaving consistently from test to test. Once the test compound and antibiotics are added the plates can be inoculated according to CLSI broth microdilution method. After inoculation, the plates are incubated for 16-20 hours at 37° C., then the Minimal Inhibitory Concentration (MIC) of the test compound is determined visually.
(§5) Using the methodology described above, examples of the current invention were evaluated for their ability to inhibit the growth of β-lactamase-producing bacteria in the presence of a β-lactam antibiotic.
(§6) Representative results are shown in Table 3 where A represents an MIC of the fixed β-lactam antibiotic in the presence of >32 μg/mL of a β-lactamase inhibitor of exemplary compounds, B represents the MIC in the presence of between 8 and 32 μg/mL of a β-lactamase inhibitor of exemplary compounds, and C represents the MIC in the presence of ≤4 μg/mL of a β-lactamase inhibitor of exemplary compounds. NT=Not Tested.

[2] = test system: E. cloacae expressing the Class C P99; test: as above; type: cell-based; conditions: Fixed CAZ 4 μg/mL; CAMHB, 16-20 hours at 37° C.
Text: as §4, §5, §6

[3] = test system: K. pneumoniae expressing the class A carbapenemase KPC-2 and the class B carbapenemase VIM-4; test: Broth microdilution MIC assay, potentiation of meropenem; type: cell-based; conditions: for MIC (μg/mL) of exemplary compounds in presence of fixed β-lactams, K.P. A-1797 KPC-2 VIM-4: Fixed Mero 4 μg/mL, CAMHB, 16-20 hours at 37° C.
Text: as §4, §5, §6

[4] = test system: P.aeruginosa expressing the Class B carbapenemase VIM-2; test: as above; type: cell-based; conditions: for MIC (μg/mL) of exemplary compounds in presence of fixed β-lactams, P. aerug. 2775 VIM-2: Fixed Mero 4 μg/mL, CAMHB, 16-20 hours at 37° C.
Text: as §4, §5, §6

[5] = target: T3, VIM-2 metallo β-lactamase (Pseudomonas aeruginosa, UniProt Q9K2N0); test: β-lactamase enzyme inhibition assay, VIM-2 (nitrocefin substrate); type: biochemical; conditions: 15 min preincubation at 37° C.; nitrocefin 100 μM, 486 nm; read-out: IC50 VIM-2 (Class B)
T3 construct: made in house; host or cells: E. coli BL21(DE3)
Protocol: For VIM-2 metallo β-lactamase, the procedure was identical with the following exceptions, first the protein was not pH adjusted to pH 5 with 50 mM sodium acetate. Second, the chromatography step was changed to a 5 ml Q sepharose anion exchange column pre-equilibrated with 50 mM Hepes pH 7.5, and elution of the protein was achieved by a linear gradient of NaCl (0-600 mM). Finally, the VIM-2 purification required a second run (3rd step) on the Q sepharose anion exchange column to achieve acceptable purity (>90%).
as §2, §3

SHV-5 = target: T4, SHV-5 (Klebsiella pneumoniae, UniProt P0A3M1); test: β-lactamase enzyme inhibition assay, SHV-5 (cefotaxime substrate); type: biochemical
T4 construct: made in house; host or cells: E. coli BL21(DE3)
T4 sequence (P0A3M1 22-286): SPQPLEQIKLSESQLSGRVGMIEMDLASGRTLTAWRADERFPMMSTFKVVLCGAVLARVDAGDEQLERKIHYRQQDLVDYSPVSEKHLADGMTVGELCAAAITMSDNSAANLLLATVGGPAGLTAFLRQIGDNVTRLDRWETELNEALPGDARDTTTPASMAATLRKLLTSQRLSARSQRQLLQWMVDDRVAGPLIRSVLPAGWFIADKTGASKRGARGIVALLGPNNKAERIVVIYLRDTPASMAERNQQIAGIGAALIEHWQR
Protocol: as §1, §2, §3

[6] = test system: K. pneumoniae producing the Class D carbapenemase OXA-48; test: Broth microdilution MIC assay, potentiation of meropenem; type: cell-based; conditions: Fixed Mero 4 μg/mL; CAMHB, 16-20 hours at 37° C.
Text: as §4, §5

[7] = test system: K. pneumoniae expressing the Class A carbapenemase KPC-3; test: as above; type: cell-based; conditions: Fixed Mero 4 μg/mL; CAMHB, 16-20 hours at 37° C.
Text: as §4, §5

KPC-2 = target: T5, KPC-2 (Klebsiella pneumoniae, UniProt Q9F663); test: β-lactamase enzyme inhibition assay, KPC-2 (imipenem substrate); type: biochemical
T5 construct: made in house; host or cells: E. coli BL21(DE3)
T5 sequence (Q9F663 25-293 limits assumed): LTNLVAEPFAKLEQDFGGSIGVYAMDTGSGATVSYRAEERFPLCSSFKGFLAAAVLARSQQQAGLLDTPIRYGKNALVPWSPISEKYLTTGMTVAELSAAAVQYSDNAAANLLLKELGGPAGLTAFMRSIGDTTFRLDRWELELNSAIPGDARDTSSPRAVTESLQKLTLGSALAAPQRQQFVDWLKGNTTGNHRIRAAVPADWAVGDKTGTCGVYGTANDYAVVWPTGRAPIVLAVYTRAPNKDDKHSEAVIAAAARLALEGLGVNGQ
Protocol: as §1, §2, §3

T1 sequence (P05364 21-381): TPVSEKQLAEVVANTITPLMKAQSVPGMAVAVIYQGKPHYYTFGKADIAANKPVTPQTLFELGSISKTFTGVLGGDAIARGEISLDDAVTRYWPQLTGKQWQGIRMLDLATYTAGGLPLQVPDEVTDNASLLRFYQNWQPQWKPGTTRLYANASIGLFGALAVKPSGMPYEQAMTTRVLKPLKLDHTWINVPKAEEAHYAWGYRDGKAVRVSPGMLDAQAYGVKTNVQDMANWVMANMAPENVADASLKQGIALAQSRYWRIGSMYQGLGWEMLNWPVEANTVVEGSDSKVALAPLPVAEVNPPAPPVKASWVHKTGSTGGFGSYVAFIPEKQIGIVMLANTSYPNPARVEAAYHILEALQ

Compound | IC50 (p99 AmpC) | IC50 (OXA-48) | MIC (μg/mL) of exemplary compounds in presence of fixed β-lactams, E. coli ESBL4 CTX-M-15 [1] | MIC (μg/mL) of exemplary compounds in presence of fixed β-lactams, E. cl. 144200 p99 AmpC [2] | MIC (μg/mL) of exemplary compounds in presence of fixed β-lactams, K.P. A-1797 KPC-2 VIM-4 [3] | MIC (μg/mL) of exemplary compounds in presence of fixed β-lactams, P. aerug. 2775 VIM-2 [4] | IC50 [5] | IC50 (SHV-5) | MIC (μg/mL) of exemplary compounds in presence of fixed β-lactams, K. P. 11978 OXA-48 [6] | MIC (μg/mL) of exemplary compounds in presence of fixed β-lactams, K. P. 156319 KPC-3 [7] | IC50 (KPC-2) | MIC alone of partner antibiotic ([3]; antibiotic alone, K. pneumoniae expressing KPC-2 and VIM-4) | MIC alone of partner antibiotic ([4]; antibiotic alone, P. aeruginosa expressing VIM-2)
O=C(CCCC(F)(F)F)N[C@H]1Cc2cccc(C(=O)O)c2OB1O [Example 2, (R)-2-hydroxy-3-(5,5,5-trifluoropentanamido)-3,4-dihydro-2H-benzo[e][1,2]oxaborinine-8-carboxylic acid] | < 100 nM | 100 to 1000 nM | C (C represents the MIC in the presence of ≤4 μg/mL of a β-lactamase inhibitor) | C (C represents the MIC in the presence of ≤4 μg/mL of a β-lactamase inhibitor) | C (C represents the MIC in the presence of ≤4 μg/mL of a β-lactamase inhibitor) | B (B represents the MIC in the presence of between 8 and 32 μg/mL of a β-lactamase inhibitor) | 1000 to 10000 nM | < 100 nM | C (C represents the MIC in the presence of ≤4 μg/mL of a β-lactamase inhibitor) | C (C represents the MIC in the presence of ≤4 μg/mL of a β-lactamase inhibitor) | < 100 nM |  | 
CC(F)(F)CC(=O)N[C@H]1Cc2cccc(C(=O)O)c2OB1O [Example 3, (R)-3-(3,3-difluorobutanamido)-2-hydroxy-3,4-dihydro-2H-benzo [e][1,2]oxaborinine-8-carboxylic acid] | < 100 nM | 100 to 1000 nM | C (C represents the MIC in the presence of ≤4 μg/mL of a β-lactamase inhibitor) | C (C represents the MIC in the presence of ≤4 μg/mL of a β-lactamase inhibitor) | C (C represents the MIC in the presence of ≤4 μg/mL of a β-lactamase inhibitor) | C (C represents the MIC in the presence of ≤4 μg/mL of a β-lactamase inhibitor) | 1000 to 10000 nM | < 100 nM | C (C represents the MIC in the presence of ≤4 μg/mL of a β-lactamase inhibitor) | C (C represents the MIC in the presence of ≤4 μg/mL of a β-lactamase inhibitor) | 100 to 1000 nM |  | 
C[C@@H](O)[C@H]1C(=O)N2C(C(=O)O)=C(S[C@@H]3CN[C@H](C(=O)N(C)C)C3)[C@H](C)[C@H]12 [Meropenem, reference compound] |  |  |  |  |  |  |  |  |  |  |  | 64 µg/mL | 16 µg/mL
